Source: patent publication US11485751B2, “Apramycin derivatives” (WAYNE STATE UNIVERSITY, priority 2017, dated 2022)
In brackets after ≈: the same amount, converted by molar mass.

Assays:
AG173 E. coli AAC(3)-IV = experiment: Antibacterial activity, clinical isolate AG173; format: cell-based
Description: (§1) Minimal inhibitory concentrations (MIC) have been determined by broth microdilution assays (CLSI. Methods for Dilution Antimicrobial Susceptibility Tests for Bacteria That Grow Aerobically; Approved Standard—Tenth Edition. CLSI document M07-A10. Wayne, Pa.: Clinical and Laboratory Standards Institute; 2015.).
(§2) Table 4 and 5 show the antibacterial activity of the compounds of the invention against bacterial reference strains (table 4) and against representative clinical isolates (table 5).

[1] = test system: SZ380, Mycobacterium smegmatis; experiment: MIC reference strain SZ380; format: cell-based; details: reference strain
Description: as §1, §2
(§3) Legend to Tables: GEN, gentamicin; AMK, amikacin; PLZ, plazomicin; APR, apramycin; AG212, Escherichia coli ATCC25922; AG215, Klebsiella pneumonia; AG220, Pseudomonas aeruginosa ATCC27853; AG225, Acinetobacter baumannii pittii; AG290, Enterobacter cloacae; […], Mycobacterium smegmatis. MICs for AG192 have been determined in the presence of 0.5 μg/mL of ampicillin in the medium to mimic the synergistic effect of aminoglycoside and β-lactam antibiotics combination therapy in the treatment of Enterococcus infections in humans.

AG003 E. coli AAC(3)-II = experiment: Antibacterial activity, clinical isolate AG003; format: cell-based
Description: as §1, §2

AG038 MRSA = experiment: Antibacterial activity, clinical isolate AG038; format: cell-based; set-up: unit not given here
Description: as §1, §2

[2] = test system: human mitochondrial ribosomes; experiment: in-vitro translation assay, human mitochondrial (human chimeric) ribosomes; format: biochemical
Description: (§4) IC50 values for bacterial, human chimeric, and rabbit reticulocyte ribosomes have been determined by in-vitro translation assays as described previously (Proc. Nat. Ac. Sci USA 2012, 109(27):10984-10989).
(§5) Minimal inhibitory concentrations (MICs, […]) against clinical isolates from Institute of Medical Microbiology, Univ. Zurich, and the IC50 values for bacterial, human mitochondrial and human cytosolic ribosomes are indicated.

AG032 P. aer. APH(3′)-II = experiment: Antibacterial activity, clinical isolate AG032; format: cell-based; set-up: unit not given here
Description: as §1, §2

[3] = test system: AG033 P. aer. APH(3′)-II AAC(6′)-I; experiment: Antibacterial activity, clinical isolate AG033; format: cell-based; set-up: unit not given here
Description: as §1, §2

AG031 P. aer. APH(3′)-II = experiment: Antibacterial activity, clinical isolate AG031; format: cell-based; set-up: unit not given here
Description: as §1, §2

isolates carrying apmA = experiment: MIC broth microdilution, apmA; format: cell-based; details: apmA resistance gene
Description: as §1, with “2015.). […]” for “2015.).”
(§6) Minimal inhibitory concentrations (μg/ml) against clinical isolates from Institute of Medical Microbiology, Univ. Zurich, and the IC50 values for bacterial, human mitochondrial and human cytosolic ribosomes are indicated.
(§7) The Minimal inhibitory concentrations (MICs, μg/ml) against clinical isolates from Institute of Medical Microbiology, Univ Zurich, and the IC50 values for bacterial, human mitochondrial and human cytosolic ribosomes are indicated.

[4] = test system: Engineered E. coli pH426 rmtC; experiment: Activity against G1405-methylated 16S-rRNA, E. coli pH426 rmtC; format: cell-based
Description: as §1

AG001 E. coli WT = experiment: Antibacterial activity, clinical isolate AG001; format: cell-based; set-up: unit not given here
Description: as §1, §2

[5] = test system: AG039 MRSA AAC(6′)-I ANT(4′)-I; experiment: Antibacterial activity, clinical isolate AG039; format: cell-based
Description: as §1, §2

[6] = test system: AG220, Pseudomonas aeruginosa ATCC27853; experiment: MIC reference strain AG220; format: cell-based
Description: as §1, §2, §3

ATCC19977 M. abcessus = experiment: MIC reference strain ATCC19977; format: cell-based
Description: as §1, §2

[7] = test system: human cytosolic ribosomes; experiment: in-vitro translation assay, human cytosolic ribosomes; format: biochemical
Description: as §4, §5

[8] = test system: AG290, Enterobacter cloacae; experiment: MIC reference strain AG290; format: cell-based; details: reference strain
Description: as §1, §2, §3

[9] = test system: Engineered E. coli AG103 armA; experiment: Activity against G1405-methylated 16S-rRNA, E. coli AG103 armA; format: cell-based
Description: as §1

[10] = test system: AG215, Klebsiella pneumonia; experiment: MIC reference strain AG215; format: cell-based; details: reference strain
Description: as §1, §2, §3

[11] = test system: AG042 MRSA AAC(6′)-I ANT(4′)-I APH(2′); experiment: Antibacterial activity, clinical isolate AG042; format: cell-based; set-up: unit not given here
Description: as §1, §2

[12] = test system: AG225, Acinetobacter baumannii pittii; experiment: MIC reference strain AG225; format: cell-based; details: reference strain
Description: as §1, §2, §3

[13] = test system: AG212, Escherichia coli ATCC25922; experiment: MIC reference strain AG212; format: cell-based; details: reference strain ATCC25922
Description: as §1, §2, §3

bacterial ribosomes = experiment: in-vitro translation assay, bacterial ribosomes; format: biochemical
Description: as §4, §5

[14] = test system: Engineered E. coli pH424 armA; experiment: Activity against G1405-methylated 16S-rRNA, E. coli pH424 armA; format: cell-based
Description: as §1

AG055 E. coli WT = experiment: Antibacterial activity, clinical isolate AG055; format: cell-based; set-up: unit not given here
Description: as §1, §2

WT clinical isolates = experiment: MIC broth microdilution, WT; format: cell-based; details: wild type
Description: as §1, §5, §6, §7

[15] = test system: Engineered E. coli pH430 WT; experiment: Activity, engineered E. coli pH430 WT; format: cell-based; details: wild type
Description: as §1

[16] = test system: Engineered E. coli pH427 rmtF; experiment: Activity against G1405-methylated 16S-rRNA, E. coli pH427 rmtF; format: cell-based
Description: as §1

[17] = test system: clinical isolates carrying AAC(3)-IV; experiment: MIC broth microdilution, AAC(3)-IV; format: cell-based; details: clinical isolates, IMM Univ. Zurich, AAC(3)-IV
Description: as §1, §5, §6, §7

[18] = test system: Engineered E. coli pH425 rmtB; experiment: Activity against G1405-methylated 16S-rRNA, E. coli pH425 rmtB; format: cell-based
Description: as §1

Compound: CNC1C(OC2OC(CO)C(N)C(O)C2O)OC2CC(N)C(OC3C(N)CC(N)C(O)C3F)OC2C1O (stereo not drawn) [DC168, 5-Deoxy-5-epi-fluoro apramycin]
- Antibacterial activity AG173 E. coli AAC(3)-IV (AG173 E. coli AAC(3)-IV): 128
- MIC SZ380 M. smegmatis [1]: 0.125 µg/mL
- Antibacterial activity AG003 E. coli AAC(3)-II (AG003 E. coli AAC(3)-II): 4
- Antibacterial activity AG038 MRSA (AG038 MRSA): 2-4
- IC50 [2]: 30 µM
- Antibacterial activity AG032 P. aer. APH(3′)-II (AG032 P. aer. APH(3′)-II): 8-16
- Antibacterial activity AG033 P. aer. APH(3′)-II AAC(6′)-I [3]: 32
- Antibacterial activity AG031 P. aer. APH(3′)-II (AG031 P. aer. APH(3′)-II): 8-16
- MIC apmA (isolates carrying apmA): 4 µg/mL (≈ 7.39 µM)
- Activity E. coli pH426 rmtC [4]: 2
- Antibacterial activity AG001 E. coli WT (AG001 E. coli WT): 8
- Antibacterial activity AG039 MRSA AAC(6′)-I ANT(4′)-I [5]: 2-4
- MIC AG220 P. aeruginosa ([6]; reference strain ATCC27853): 4 µg/mL
- MIC ATCC19977 M. abcessus (ATCC19977 M. abcessus; reference strain): 1 µg/mL (≈ 1.85 µM)
- IC50 [7]: 28 µM
- MIC AG290 E. cloacae [8]: 4 µg/mL
- Activity E. coli AG103 armA [9]: 1
- MIC AG215 K. pneumonia [10]: 1 µg/mL
- Antibacterial activity AG042 MRSA AAC(6′)-I ANT(4′)-I APH(2′) [11]: 4
- MIC AG225 A. baumannii [12]: 4 µg/mL
- MIC AG212 E. coli [13]: 4 µg/mL
- IC50 (bacterial ribosomes): 50 nM
- Activity E. coli pH424 armA [14]: 2
- Antibacterial activity AG055 E. coli WT (AG055 E. coli WT): 4
- MIC WT (WT clinical isolates; clinical isolates, IMM Univ. Zurich): 2 µg/mL (≈ 3.69 µM)
- Activity E. coli pH430 WT [15]: 2
- Activity E. coli pH427 rmtF [16]: 2
- MIC AAC(3)-IV [17]: >32 µg/mL
- Activity E. coli pH425 rmtB [18]: 2

Compound: CNC1C(OC2OC(CO)C(N)C(O)C2O)OC2CC(N)C(OC3CC(O)C(N)CC3N)OC2C1O (stereo not shown) [DC169, 5-Deoxy-apramycin]
- Antibacterial activity AG173 E. coli AAC(3)-IV (AG173 E. coli AAC(3)-IV): 32
- MIC ([1]; Mycolicibacterium smegmatis, read-out: MIC SZ380 M. smegmatis): 0.125 µg/mL
- Antibacterial activity AG003 E. coli AAC(3)-II (AG003 E. coli AAC(3)-II): 4
- Antibacterial activity AG038 MRSA (AG038 MRSA): 2-4
- IC50 [2]: 45 µM
- Antibacterial activity AG032 P. aer. APH(3′)-II (AG032 P. aer. APH(3′)-II): 8
- Antibacterial activity AG033 P. aer. APH(3′)-II AAC(6′)-I [3]: 16
- Antibacterial activity AG031 P. aer. APH(3′)-II (AG031 P. aer. APH(3′)-II): 8
- MIC (isolates carrying apmA): 16 µg/mL (≈ 30.6 µM)
- Activity E. coli pH426 rmtC [4]: 4
- Antibacterial activity AG001 E. coli WT (AG001 E. coli WT): 4
- Antibacterial activity AG039 MRSA AAC(6′)-I ANT(4′)-I [5]: 2
- MIC ([6]; Pseudomonas aeruginosa, ATCC27853, reference strain ATCC27853, read-out: MIC AG220 P. aeruginosa): 4 µg/mL
- MIC (ATCC19977 M. abcessus; read-out: MIC ATCC19977 M. abcessus): 1 µg/mL (≈ 1.91 µM)
- IC50 [7]: 42 µM
- MIC ([8]; Enterobacter cloacae, read-out: MIC AG290 E. cloacae): 2 µg/mL
- Activity E. coli AG103 armA [9]: 1
- MIC ([10]; Klebsiella pneumoniae, read-out: MIC AG215 K. pneumonia): 2 µg/mL
- Antibacterial activity AG042 MRSA AAC(6′)-I ANT(4′)-I APH(2′) [11]: 4
- MIC ([12]; Acinetobacter baumannii, read-out: MIC AG225 A. baumannii): 4 µg/mL
- MIC ([13]; Escherichia coli, read-out: MIC AG212 E. coli): 4 µg/mL
- IC50 (bacterial ribosomes): 60 nM
- Activity E. coli pH424 armA [14]: 2
- Antibacterial activity AG055 E. coli WT (AG055 E. coli WT): 4
- MIC (WT clinical isolates; read-out: MIC WT, clinical isolates, IMM Univ. Zurich): 4 µg/mL (≈ 7.64 µM)
- Activity E. coli pH430 WT [15]: 4
- Activity E. coli pH427 rmtF [16]: 4
- MIC ([17]; read-out: MIC AAC(3)-IV): > 32 µg/mL
- Activity E. coli pH425 rmtB [18]: 4
